target: human activated kallikrein enzyme (Homo sapiens, UniProt P03952); experiment: Plasma kallikrein inhibition, fluorogenic PFR-AMC substrate, 500 pM activated kallikrein format; assay type: biochemical; details: 500 pM activated kallikrein, 300 uM PFR-AMC, 30 min preincubation, 10 min reaction; read-out: Primary Dose Response Assay: Average EC50
Procedure, shortened: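 Enzyme at 500 pM preincubated 30 min RT with inhibitors in 20 mM Tris pH 7.5, 1 mM EDTA, 150 mM NaCl, 0.1% PEG-400, 0.1% Triton X-100. Reaction started with 300 uM PFR-AMC, run 10 min RT; fluorescence read at 460 nm emission, 380 nm excitation. EC50 reported in ranges.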

human activated kallikrein enzyme, sequence (P03952 391-638 limits assumed): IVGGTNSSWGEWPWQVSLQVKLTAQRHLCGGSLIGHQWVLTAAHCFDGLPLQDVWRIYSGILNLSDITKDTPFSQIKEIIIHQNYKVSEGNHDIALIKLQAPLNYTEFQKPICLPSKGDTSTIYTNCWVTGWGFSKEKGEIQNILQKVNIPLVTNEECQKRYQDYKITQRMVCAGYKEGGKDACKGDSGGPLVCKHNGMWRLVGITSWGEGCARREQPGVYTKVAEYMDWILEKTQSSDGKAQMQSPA
human activated kallikrein enzyme, sequence (P03952 20-390 partner limits assumed): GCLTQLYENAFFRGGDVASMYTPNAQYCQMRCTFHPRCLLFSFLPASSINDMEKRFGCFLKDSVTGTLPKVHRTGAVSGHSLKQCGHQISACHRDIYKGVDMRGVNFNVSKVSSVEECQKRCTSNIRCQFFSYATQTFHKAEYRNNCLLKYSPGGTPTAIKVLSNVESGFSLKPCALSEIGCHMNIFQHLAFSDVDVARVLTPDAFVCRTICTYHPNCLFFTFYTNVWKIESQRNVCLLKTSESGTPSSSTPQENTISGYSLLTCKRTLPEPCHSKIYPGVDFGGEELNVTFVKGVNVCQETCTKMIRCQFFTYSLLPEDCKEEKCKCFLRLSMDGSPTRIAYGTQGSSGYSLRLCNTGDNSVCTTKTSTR

Row | SMILES | EC50 [nM]
1 | N[C@H]1C[C@H](c2cn3cc(C4CC4)ccc3n2)N(c2cc(NC(=O)[C@H]3C[C@@H]3c3cccc(Cl)c3)ncn2)C1 [Example 297, (1S,2S)—N-(6-((2R,4S)-4-amino-2-(6-cyclopropylimidazo[1,2-a]pyridin-2-yl)pyrrolidin-1-yl)pyrimidin-4-yl)-2-(3-chlorophenyl)cyclopropane-1-carboxamide] | 1000 to 6000
2 | Cc1ccnc([C@H]2C[C@@H]2C(=O)Nc2cc(N[C@H](C)c3cn4cc(C5CC5)cc(N5CC6(CN(C)C6)N(C)C5=O)c4n3)ncn2)n1 [Example I-245, (1S,2S)-N-(6-(((R)-1-(6-cyclopropyl-8-(2,5-dimethyl-6-oxo-2,5,7-triazaspiro[3.4]octan-7-yl)imidazo[1,2-a]pyridin-2-yl)ethyl)amino)pyrimidin-4-yl)-2-(4-methylpyrimidin-2-yl)cyclopropane-1-carboxamide] | < 1
3 | Cc1ccnc([C@H]2C[C@@H]2C(=O)Nc2cc(N3C[C@@H](O)C[C@@H]3c3cn4cc(C5CC5)ccc4n3)ncn2)c1F (relative stereo) [Example 542, rac-(1S*,2S*)-N-(6-((2R,4S)-2-(6-cyclopropylimidazo[1,2-a]pyridin-2-yl)-4-hydroxypyrrolidin-1-yl)pyrimidin-4-yl)-2-(3-fluoro-4-methylpyridin-2-yl)cyclopropane-1-carboxamide] | 10 to 100
4 | O=C(Nc1cc(NCc2cn3cc(C4CC4)ccc3n2)ccn1)[C@H]1C[C@@H]1c1cc(Cl)cnn1 (racemic) [Example I-211, rac-(1S*,2S*)-2-(5-chloropyridazin-3-yl)-N-(4-(((6-cyclopropylimidazo[1,2-a]pyridin-2-yl)methyl)amino)pyridin-2-yl)cyclopropane-1-carboxamide] | 10 to 100
5 | COc1cc(NCc2cn3cc(C4CC4)ccc3n2)cc(NC(=O)[C@H]2C[C@@H]2c2cccc(Cl)c2)n1 [Example 340, (1S,2S)-2-(3-chlorophenyl)-N-(4-(((6-cyclopropylimidazo[1,2-a]pyridin-2-yl)methyl)amino)-6-methoxypyridin-2-yl)cyclopropane-1-carboxamide] | 1 to 10
6 | Cc1ccnc([C@H]2C[C@@H]2C(=O)Nc2nccn3nc(Cc4cn5cc(C6CC6)cc(N6CC(=O)N(C)C6=O)c5n4)cc23)n1 [Example I-649, (1S,2S)—N-(2-((6-cyclopropyl-8-(3-methyl-2,4-dioxoimidazolidin-1-yl)imidazo[1,2-a]pyridin-2-yl)methyl)pyrazolo[1,5-a]pyrazin-4-yl)-2-(4-methylpyrimidin-2-yl)cyclopropane-1-carboxamide] | < 1
7 | O=C(Nc1cc(NCc2cn3cc(C4CC4)cc(N4CC(F)(F)C4)c3n2)ccn1)[C@H]1C[C@@H]1c1cccc(Cl)c1 [Example 124, (1S,2S)-2-(3-chlorophenyl)-N-(4-(((6-cyclopropyl-8-(3,3-difluoroazetidin-1-yl)imidazo[1,2-a]pyridin-2-yl)methyl)amino)pyridin-2-yl)cyclopropane-1-carboxamide] | 1 to 10
8 | O=C(Nc1nccc2nn(Cc3cn4cc(C5CC5)ccc4n3)cc12)[C@H]1C[C@@H]1c1cc(Cl)ccn1 [Example 577, (1S,2S)-2-(4-chloropyridin-2-yl)-N-(2-((6-cyclopropylimidazo[1,2-a]pyridin-2-yl)methyl)-2H-pyrazolo[4,3-c]pyridin-4-yl)cyclopropane-1-carboxamide] | < 1
9 | Nc1cc(Cl)cc([C@H]2C[C@@H]2C(=O)Nc2cc(NCc3cn4cc(C5CC5)ccc4n3)ncn2)c1 (single isomer, unassigned) [Example I-258, rac-(1S*,2S*)-2-(3-amino-5-chlorophenyl)-N-(6-(((6-cyclopropylimidazo[1,2-a]pyridin-2-yl)methyl)amino)pyrimidin-4-yl)cyclopropane-1-carboxamide] | 1000 to 6000
10 | O=C([C@H]1C[C@@H]1c1cccc(Cl)c1)N(O)c1cc(NCc2cn3cc(C4CC4)ccc3n2)ncn1 [Example I-175, (1S,2S)-2-(3-chlorophenyl)-N-(6-(((6-cyclopropylimidazo[1,2-a]pyridin-2-yl)methyl)amino)pyrimidin-4-yl)-N-hydroxycyclopropane-1-carboxamide] | > 6000
11 | COCc1cnc(NC(=O)[C@H]2C[C@@H]2c2nccc(C)n2)nc1OCc1cn2cc(C3CC3)cc(N3CC(=O)N(C)C3=O)c2n1 [Example 663, (1S,2S)—N-(4-((6-cyclopropyl-8-(3-methyl-2,4-dioxoimidazolidin-1-yl)imidazo[1,2-a]pyridin-2-yl)methoxy)-5-(methoxymethyl)pyrimidin-2-yl)-2-(4-methylpyrimidin-2-yl)cyclopropane-1-carboxamide] | < 1
12 | CC1(C)CC(=O)N(c2cc(C3CC3)cn3cc(CNc4cc(NC(=O)[C@H]5C[C@@H]5c5cccc(Cl)c5)ncn4)nc23)C1 (racemic) [Example 66, rac-(1S*,2S*)-2-(3-chlorophenyl)-N-(6-(((6-cyclopropyl-8-(4,4-dimethyl-2-oxopyrrolidin-1-yl)imidazo[1,2-a]pyridin-2-yl)methyl)amino)pyrimidin-4-yl)cyclopropane-1-carboxamide] | 1 to 10
13 | C[C@H]1[C@H](C(=O)Nc2cc(NCc3cn4cc(C5CC5)ccc4n3)ncn2)[C@H]1c1cccc(Cl)c1 (single isomer, unassigned) [Example 507, (1R*,2R*,3S*)-2-(3-chlorophenyl)-N-(6-(((6-cyclopropylimidazo[1,2-a]pyridin-2-yl)methyl)amino)pyrimidin-4-yl)-3-methylcyclopropane-1-carboxamide] | > 6000
14 | Cc1ccnc([C@H]2C[C@]2(F)C(=O)Nc2cc(N[C@H](C)c3cn4cc(C5CC5)cc(N5CC(=O)N(C)C5=O)c4n3)nc(C)n2)n1 (racemic) [Example 528, rac-(1S*,2S*)-N-(6-(((R)-1-(6-cyclopropyl-8-(3-methyl-2,4-dioxoimidazolidin-1-yl)imidazo[1,2-a]pyridin-2-yl)ethyl)amino)-2-methylpyrimidin-4-yl)-1-fluoro-2-(4-methylpyrimidin-2-yl)cyclopropane-1-carboxamide] | 1 to 10
15 | CN1C(=O)[C@]2(C[C@H]2C(=O)Nc2cc(NCc3cn4cc(C5CC5)ccc4n3)ncn2)c2cc(Cl)ccc21 (racemic) [Example 413, rac-(1R*,2S*)-5′-chloro-N-(6-(((6-cyclopropylimidazo[1,2-a]pyridin-2-yl)methyl)amino)pyrimidin-4-yl)-1′-methyl-2′-oxospiro[cyclopropane-1,3′-indoline]-2-carboxamide] | 100 to 1000
16 | O=C(Nc1cc2c(cn1)ncn2Cc1cn2cc(C3CC3)ccc2n1)[C@H]1C[C@@H]1c1cccc(Cl)c1 (racemic) [Example 594, rac-(1S*,2S*)-2-(3-chlorophenyl)-N-(1-((6-cyclopropylimidazo[1,2-a]pyridin-2-yl)methyl)-1H-imidazo[4,5-c]pyridin-6-yl)cyclopropane-1-carboxamide] | 10 to 100
17 | CC(=O)OC(Cc1cn2cc(C3CC3)cc(N3CC(=O)N(C)C3=O)c2n1)c1cc(NC(=O)[C@H]2C[C@@H]2c2nccc(C)n2)nc(C)n1 (stereo partly drawn) [Example 673, 2-(6-cyclopropyl-8-(3-methyl-2,4-dioxoimidazolidin-1-yl)imidazo[1,2-a]pyridin-2-yl)-1-(2-methyl-6-((1S,2S)-2-(4-methylpyrimidin-2-yl)cyclopropane-1-carboxamido)pyrimidin-4-yl)ethyl acetate] | 100 to 1000
18 | O=C(Nc1cc(NC(c2cn3cc(C4CC4)ccc3n2)C(F)(F)F)ccn1)[C@H]1C[C@@H]1c1cccc(Cl)c1 (stereo partly drawn) [Example 141] | 100 to 1000
19 | O=C(Nc1cc(NCc2cn3cc(C4CC4)cc(-n4cnnc4)c3n2)ncn1)[C@H]1C[C@@H]1c1cccc(Cl)c1 (racemic) [Example 405, rac-(1S*,2S*)-2-(3-chlorophenyl)-N-(6-(((6-cyclopropyl-8-(4H-1,2,4-triazol-4-yl)imidazo[1,2-a]pyridin-2-yl)methyl)amino)pyrimidin-4-yl)cyclopropane-1-carboxamide] | < 1
20 | O=C(Nc1cc(NCc2cn3cc(C4CC4)ccc3n2)ncn1)[C@H]1C[C@@H]1c1cc(Cl)ccc1C(F)(F)F (racemic) [Example 52, rac-(1S*,2S*)-2-(5-chloro-2-(trifluoromethyl)phenyl)-N-(6-(((6-cyclopropylimidazo[1,2-α]pyridin-2-yl)methyl)amino)pyrimidin-4-yl)cyclopropane-1-carboxamide] | 100 to 1000
21 | CN(C)c1ccc2nc(CNc3cc(NC(=O)[C@H]4C[C@@H]4c4cccc(Cl)c4)ncn3)cn2c1 [Example I-205, (1S,2S)-2-(3-chlorophenyl)-N-(6-(((6-(dimethylamino)imidazo[1,2-a]pyridin-2-yl)methyl)amino)pyrimidin-4-yl)cyclopropane-1-carboxamide] | 10 to 100
22 | COc1ccc(CN2C(=O)CN(c3cc(C4CC4)cn4cc(CNc5cc(NC(=O)[C@H]6C[C@@H]6c6cccc(Cl)c6)ncn5)nc34)C2=O)cc1 [Example 397, (1S,2S)-2-(3-chlorophenyl)-N-(6-(((6-cyclopropyl-8-(3-(4-methoxybenzyl)-2,4-dioxoimidazolidin-1-yl)imidazo[1,2-a]pyridin-2-yl)methyl)amino)pyrimidin-4-yl)cyclopropane-1-carboxamide] | 10 to 100
23 | O=C(Nc1nccc2nn(Cc3cn4cc(C5CC5)ccc4n3)cc12)[C@H]1C[C@@H]1c1cc(Cl)ccc1[N+](=O)[O-] (racemic) [Example 578, rac-(1S*,2S*)-2-(5-chloro-2-nitrophenyl)-N-(2-((6-cyclopropylimidazo[1,2-a]pyridin-2-yl)methyl)-2H-pyrazolo[4,3-c]pyridin-4-yl)cyclopropane-1-carboxamide] | 1 to 10

same assay, conditions: comparative compounds, 500 pM activated kallikrein format; read-out: Primary Dose Response Assay: Average EC50

Row | SMILES | EC50 [nM]
24 | O=C(Cc1ncn2ccc(Cl)cc12)Nc1cc(NCc2cn3cc(C4CC4)ccc3n2)ncn1 | 1 to 10

— patent publication US20240228488A1 (TAKEDA PHARMACEUTICAL COMPANY LIMITED, priority 2021, published 2024)
